This test has as its system Pityrosporum ovale. Briefly: agar surface coating test (ASCT) against Pityrosporum ovale, in shampoo. Type of test: cell-based. The conditions noted are these: shampoo containing Octopirox compared with a shampoo without Octopirox. How it is done: Whatever the chosen test according to the invention, a culture of the selected germ was set up on Petri dishes under the same test conditions in parallel with a control solution composed in general of sterilised water or of a saline solution. After the period(s) of incubation considered according to the selected test, the surface area of the dish which was free of bacteria and/or fungi was measured for both the tested compound and the control solution. By calculating a surface ratio, a relative surface value, enabling the selection of the compounds with an antimicrobial activity of at least 80% in one of these tests of effectiveness, was defined. The following germs were used in these methods: Pityrosporum ovale, Staphylococcus aureus, Staphylococcus epidermidis, Escherichia coli, Pseudomonas aeruginosa, Candida albicans, Trichophyton mentagrophytes. […]
The tested product and the agar surface are again left in contact for 30 s under the same conditions as above, followed by the stage of rinsing and of 24-h incubation at ambient temperature, and the antimicrobial evolution is observed again after this second phase of the test. […] The microbicidal or microbiostatic action can be established after each phase of the test, and recorded. […]

Data on 1 molecule can be found in patent publication US6479456B1, “Antimicrobial perfume compositions” (Firmenich SA, priority 2000, dated 2002).

On to `Cc1cc(CC(C)CC(C)(C)C)n(O)c(=O)c1.NCCO` (stereo not shown) [Octopirox®, Piroctone olamine], for which the “reduction of growth of P. ovale” value is 60%.
